For data set [1], the target named is T1, PPARγ (Homo sapiens, UniProt P37231).
T1 sequence (P37231 1-505): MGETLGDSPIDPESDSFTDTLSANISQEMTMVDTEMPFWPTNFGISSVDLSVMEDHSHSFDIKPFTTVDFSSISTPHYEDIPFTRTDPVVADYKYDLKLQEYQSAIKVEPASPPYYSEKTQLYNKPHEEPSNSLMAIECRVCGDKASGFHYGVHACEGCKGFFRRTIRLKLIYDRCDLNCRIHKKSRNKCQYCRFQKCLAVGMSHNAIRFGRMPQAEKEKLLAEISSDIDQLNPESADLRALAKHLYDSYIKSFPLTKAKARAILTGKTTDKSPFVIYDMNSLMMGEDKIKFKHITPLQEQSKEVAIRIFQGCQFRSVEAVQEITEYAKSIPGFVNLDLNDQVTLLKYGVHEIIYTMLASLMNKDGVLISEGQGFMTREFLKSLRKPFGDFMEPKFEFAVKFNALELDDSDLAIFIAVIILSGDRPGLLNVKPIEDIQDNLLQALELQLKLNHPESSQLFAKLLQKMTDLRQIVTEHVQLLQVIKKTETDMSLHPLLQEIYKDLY
The data set is described as follows: Membrane-bound PPARγ binding assay. The source says:
The dose-related increase of PPRE reporter activity by genistein was also observed when a luciferase reporter construct containing three copies of a consensus PPRE inserted in front of a minimal thymidine kinase promoter. To determine whether genistein activates PPARγ through direct interaction with this receptor, we performed membrane-bound PPARγ binding assay.

Data set [2] deals with T2, PPARγ (Mus musculus, UniProt P37238).
T2 construct: host or cells: mouse macrophages
T2 sequence (P37238 1-505): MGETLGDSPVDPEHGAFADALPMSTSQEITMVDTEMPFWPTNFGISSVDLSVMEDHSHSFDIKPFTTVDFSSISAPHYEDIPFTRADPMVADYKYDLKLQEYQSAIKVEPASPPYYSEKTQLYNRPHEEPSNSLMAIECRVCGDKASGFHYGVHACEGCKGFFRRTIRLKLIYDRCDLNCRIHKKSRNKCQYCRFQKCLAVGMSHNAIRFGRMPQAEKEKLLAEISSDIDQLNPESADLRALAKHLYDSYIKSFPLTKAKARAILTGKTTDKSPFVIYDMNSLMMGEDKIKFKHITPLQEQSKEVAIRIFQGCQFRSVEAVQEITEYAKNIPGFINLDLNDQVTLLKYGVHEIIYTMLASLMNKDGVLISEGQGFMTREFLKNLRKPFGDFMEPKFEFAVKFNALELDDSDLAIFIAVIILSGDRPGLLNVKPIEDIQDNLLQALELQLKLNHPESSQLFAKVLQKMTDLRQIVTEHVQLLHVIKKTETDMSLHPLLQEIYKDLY
The note with it: cited from earlier work; for PPARγ binding and activation: may act as allosteric effectors.

In data set [3] the target is T3, human PPARγ2 (Homo sapiens, UniProt P37231).
T3 construct: expressed in transfected cells; host or cells: KS483 cells
T3 sequence (P37231 1-505): T1 sequence (P37231 1-505)
The data set is described as follows: PPRE luciferase reporter in KS483 cells with human PPARγ2 expression plasmid. Format: cell-based. The source says:
KS483 cell were transiently transfected with a luciferase reporter construct containing two copies of a consensus estrogenic receptor responsive element (ERE) inserted in front of TATA or five copies of a consensus PPARy responsive element (PPRE) inserted in front of TATA or empty TATA-luciferase reporter along with expression plasmids encoding human PPARγ2.
To determine whether genistein activates PPARγ through direct interaction with this receptor, we performed membrane-bound PPARγ binding assay.
A general note: A reporter such as luciferase makes a cellular process visible.

Data set [4] has as its system estrogen receptors (ER's). The data set is described as follows: In vitro model, summary: activation of estrogen receptors. It counts as cell-based. The note with it: leads to stimulation of osteogenesis.
The subject of data set [5] is osteogenesis and adipogenesis. The data set is described as follows: In vitro model, summary: osteogenesis stimulated and adipogenesis inhibited. It counts as cell-based. As to conditions: low plasma concentrations, ER mediated. The text has this:
(§1) Despite the large number of prior art publications that deal with the favourable effect of genistein on e.g. osteogenesis and/or adipogenesis, it has not been recognized before that it is crucial to avoid that plasma genistein levels reach a level that is sufficient to activate the PPARγ receptor in order to prevent inhibition of osteoblast activity and differentiation and to prevent stimulation of adipogenesis. As a matter of fact some of these publications recommend genistein dosages and plasma levels that according to the inventors' findings will produce significant adverse results. The inventors have developed a highly reproducible and sensitive in vitro model that has allowed them to discover that the effect of genistein components on e.g. osteogenesis and adipogenesis is biphasic, i.e. at plasma genistein levels above about 0.02 μM estrogen receptors (ER's) may be activated, leading to stimulation of osteogenesis, whilst at plasma genistein levels above about 4 μM the PPARγ receptor is activated, which triggers adipogenesis. By maintaining the plasma genistein levels at a level where the estrogen receptors are continuously activated, whilst at the same time avoiding activation of the PPARγ receptor, disorders such as osteoporosis and obesity may effectively be treated. […] These effects are mediated through the ER's.

For data set [6], the system named is human bone marrow cell cultures. The data set is described as follows: Osteogenesis in human bone marrow cell cultures. Format: cell-based. The method, then: (§2) Similar stimulatory and inhibitory effects of genistein on bone formation were also observed in mouse and human bone marrow cell cultures. Like in KS483 cells, the stimulatory effects on ALP activity and Ca deposition in mouse bone marrow cultures occurred at concentrations between 0.1 μM and 10 μM, whereas the inhibitory effects were also found at the concentrations of 25 μM or higher. In human bone marrow cell cultures, the stimulatory effects was found at 0.001 μM, whereas the inhibitory effects were observed above 4 μM.

Data set [7] concerns 3T3-L1 cels. As to conditions: cited from earlier work.
Data set [8] has as its system KS 483 cells. Nature of the data set: Osteogenesis in KS 483 cells (ALP activity, nodule formation, Ca deposition, osteoblastic marker mRNA). Format: cell-based. The method, then: KS 483 cells were continuously treated for 21 days with various concentrations of genistein from day one onwards. Genistein had clear biphasic effects on osteogenesis. The stimulatory effects of genistein on alkaline phosphatase (ALP) activity, nodule formation and Ca deposition were found in the range of 0.1 μM to 10 μM, with a maximal effect at 1 μM. In contrast, the inhibitory effects of genistein on ALP activity, nodule formation and Ca deposition occurred at concentrations of 25 μM or higher.

Data set [9] has as its system 3T3-L1. As to conditions: cited from earlier work; for proliferation of preadipocytes: time- and dose-dependent.
Data set [10] concerns estrogenic receptor responsive element (ERE). The data set is described as follows: ERE luciferase reporter in transiently transfected KS483 cells. It counts as cell-based. The procedure:
KS483 cell were transiently transfected with a luciferase reporter construct containing two copies of a consensus estrogenic receptor responsive element (ERE) inserted in front of TATA or five copies of a consensus PPARy responsive element (PPRE) inserted in front of TATA or empty TATA-luciferase reporter along with expression plasmids encoding human PPARγ2. […] Similarly, a dose-related increase of PPRE reporter activity was found in the range of 1 μM to 50 μM.
It is also possible that an activation of PPARγ down regulated transcriptional activity of estrogen, i.e. there is cross-talk between ER's and PPARγ. […] Ligand concentration thus plays a crucial role in determining the degree of activation of ER's and PPARγ.

The test system of data set [11] is ovariectomised, lactating rats. The note with it: cited from earlier work.
Data set [12] has as its system KS483 cells. Nature of the data set: Adipogenesis (adipocyte numbers) in KS483 cells. Format: cell-based. The note with it: KS483 cells treated from day 1 onwards. The text has this: (§3) These inhibitory and stimulatory effects of genistein on adipogenesis in KS483 cells were further confirmed by mRNA expression of the adipocyte markers, PPARγ2, adipocyte protein 2 (aP2) and lipoprotein lipase (LPL). Adipogenic responses of mouse bone marrow cells to different doses of genistein were obtained.

Data set [13] addresses T1, PPARγ. The data set is described as follows: In vitro model, summary: activation of and binding to PPARγ. It counts as cell-based. As to conditions: triggers adipogenesis.
From the text: as §1
At the same time the adipogenesis increases. […]

In data set [14] the test system is mouse bone marrow cell cultures. Nature of the data set: Osteogenesis in mouse bone marrow cell cultures. Format: cell-based. The procedure:
as §2

The conditions of data set [15]: cited from earlier work.
Data set [16] relates to human bone marrow cultures. The data set is described as follows: Adipogenesis (adipocyte numbers) in human bone marrow cultures. Format: cell-based.
Data set [17] relates to p42 and p44 MAPK. Nature of the data set: Western blot of p42 and p44 MAPK activity. Format: cell-based. The text has this:
It has been shown that phosphorylation of PPARγ by p42 and p44 mitogen activated protein kinase (MAPK) regulates PPARγ activity. We therefore performed western blot to test whether genistein at the micromolar concentrations inhibit p42 and p44 MAPK activity. […] An inhibition of p42 and p44 vMAPK activity is likely to potentiate PPARγ activity.
A general note: A western blot detects proteins with antibodies after separation by electrophoresis.

Data set [18] relates to mouse bone marrow cells. Nature of the data set: Adipogenesis (adipocyte numbers) in mouse bone marrow cultures. Format: cell-based.
From the text: as §3

For data set [19] the following is noted: dose 8 mg/kg body weight; cited from earlier work.
[20] abbreviates: 61.7 μmole genistein per kg bodyweight per day.

These results are taken from patent US20050090457A1, “Method of treating mammals with genistein and/or genistein analogues” (N.V. NUTRICIA, priority 2002, published 2005).

Usually Ki stands for a measure of affinity in units of concentration, obtained from inhibition or displacement. A lower Ki goes with higher affinity.

Read-outs that look alike come from different tables or passages of the source. Some results are limits rather than exact numbers.

On to `CCCc1c(OCCCCc2nnn[nH]2)ccc(C(C)=O)c1O` [LY 171883, reference compound], for which the inhibitory constant (Ki) in [1] worked out at 4.2 µM.
For `O=c1cc(-c2ccc(O)cc2)oc2cc(O)cc(O)c12` [apigenin], the “PPARγ binding and activation” value in [2] was “able to bind and activate PPARγ”.
For `O=c1c(-c2ccc(O)cc2)coc2cc(O)cc(O)c12` [genistein], the “concentration at which PPRE reporter activity reaches the maximal level” value in data set [3] (KS483 cells) is 50 µM. For the same compound, the “effect of co-transfection of ERα on PPRE reporter activity” value in data set [3] (KS483 cells exposed to genistein) is “down regulation of PPRE reporter activity”. Moreover, the “plasma genistein level above which estrogen receptors may be activated” value in [4] is on record as “above 0.02 μM”. Moreover, the “plasma concentrations at which osteogenesis is stimulated and adipogenesis is inhibited” value in [5] lay within 0.02 to 3 µM. In data set [6], the “concentration at which stimulatory effects on bone formation were found” value was determined as 0.001 µM. The “concentrations at which inhibitory effects on bone formation were observed” value in data set [6] was “above 4 μM”. Moreover, the D/M induced adipogenesis result in data set [7] (3.3 μM, lowest concentration tested) is on record as “weak inhibitory influence”; in data set [7] (100 μM) it was “effectively abolishes adipogenic conversion”; in [7] (10 and 33 μM) it was “marked inhibition of adipogenesis”. Further, in data set [2] (concentration of 10 μM), the PPARγ activity result is “not stimulate PPARγ activity”. Further, the “concentration of maximal stimulatory effect on ALP activity, nodule formation and Ca deposition” value in [8] (KS 483 cells, 21 days) worked out at 1 µM. In addition, the “concentrations of inhibitory effects on ALP activity, nodule formation and Ca deposition” value in data set [8] (KS 483 cells, 21 days) was no less than 25 µM. The “bone formation by mRNA expression of Cbfal, osteocalcin and PTH/PTHrP receptor” value in data set [8] (genistein 1 μM) is reported as “increase of bone formation”; in data set [8] (genistein 25 μM), “decrease of bone formation”. Moreover, the PPAR-γ expression entry in data set [9] (added to 2-day postconfluent preadipocytes at the induction of differentiation) was “inhibit PPAR-γ expression”. The proliferation of preadipocytes result in data set [9] was “inhibit proliferation of preadipocytes”. The “concentration at which ERE reporter activity reaches the maximal level” value in data set [10] (KS483 cells) turned out to be 50 µM. In addition, the “effect of co-transfection of PPARγ2 on ERE reporter activity” value in data set [10] (KS483 cells exposed to the same concentrations of genistein) is given as “decreased ERE reporter activity”. Moreover, in data set [11] (setting [20]), the “effect on uterine weight” value is “negative impact on uterine weight”. Also, in data set [11] (setting [20]), the “response on retention of bone mass” value is “lower response”. The “dosages with positive effect on the retention of bone mass” value in [11] (ovariectomised, lactating rats) is reported as 6.2-19.7 μmole genistein per kg bodyweight per day. Moreover, in data set [12], the “concentrations of increased adipocyte numbers” value was no less than 10 µM. For the same compound, the “genistein level above which the PPARγ receptor is bound/activated” value in [13] is “above 4 μM”. Moreover, in [14], the “concentrations of inhibitory effects on bone formation” value was no less than 25 µM. The compound further came in with an inhibition constant Ki in data set [1] of 5.7 µM. The “plasma concentration of genistein” value was roughly 5 µM in [15] (Japanese who consume high amounts of soy products) and “less than 20 nM” in data set [15] (humans consuming diets without soy). Moreover, the “concentration with an increase in adipocyte numbers” value in data set [16] worked out at 10 µM. For the same compound, the “concentration range of inhibition of p42 and p44 MAPK activity” value in data set [17] was “micromolar range”. Moreover, the “concentrations with an increase in adipocyte numbers” value in data set [18] is listed as “above 4 μM”. In addition, in [19], the serum genistein was roughly 10 µM.
For the compound `O=c1c(O)c(-c2ccc(O)cc2)oc2cc(O)cc(O)c12` [kaempferol], in [2], the “PPARγ binding and activation” value is “able to bind and activate PPARγ”.
`O=C1C[C@@H](c2ccc(O)cc2)Oc2cc(O)cc(O)c21` [naringenin, reference compound]: the proliferation of preadipocytes result in data set [9] is recorded as “inhibit proliferation of preadipocytes”.
